Results as given in ChEMBL document CHEMBL4673372, “1,2,3-triazole-thiazole hybrids: Synthesis, in vitro antimicrobial activity and antibiofilm studies” (Bioorg Med Chem Lett, 2021).
In brackets after ≈: the same amount, converted by molar mass.

Key:
THP-1 [1] = experiment: Cytotoxicity against human THP-1 cells assessed as reduction in cell viability at 200 uM by MTT assay; assay type: cell-based; conditions: thp-1, 200 µM
Pseudomonas aeruginosa [2] = experiment: Antibacterial activity against Pseudomonas aeruginosa MTCC 2453 assessed as inhibition of bacterial growth by microtiter broth dilution method; assay type: functional
Bacillus subtilis [3] = experiment: Antibacterial activity against Bacillus subtilis MTCC 121 assessed as inhibition of bacterial growth by microtiter broth dilution method; assay type: functional
Escherichia coli [4] = experiment: Antibacterial activity against Escherichia coli MTCC 739 assessed as inhibition of bacterial growth by microtiter broth dilution method; assay type: functional
Micrococcus luteus [5] = experiment: Antibacterial activity against Micrococcus luteus MTCC 2470 assessed as inhibition of bacterial growth by microtiter broth dilution method; assay type: functional
[6] = Selectivity index, ratio of CC50 for human THP-1 cells to MIC for Staphylococcus aureus MTCC 96; assay type: toxicity
Raoultella planticola [7] = experiment: Antibacterial activity against Klebsiella planticola MTCC 530 assessed as inhibition of bacterial growth by microtiter broth dilution method; assay type: functional
[8] = Cytotoxicity against human THP-1 cells; assay type: cell-based
THP-1 [9] = experiment: Cytotoxicity against human THP-1 cells assessed as cell damage at 200 uM by LDH assay; assay type: cell-based; conditions: thp-1, 200 µM
Staphylococcus aureus [10] = experiment: Bactericidal activity against Staphylococcus aureus MTCC 96; assay type: functional
Staphylococcus aureus [11] = experiment: Antibacterial activity against Staphylococcus aureus MLS16 MTCC 2940 assessed as inhibition of bacterial growth by microtiter broth dilution method; assay type: functional
Staphylococcus aureus [12] = experiment: Antibacterial activity against Staphylococcus aureus MTCC 96 assessed as inhibition of bacterial growth by microtiter broth dilution method; assay type: functional
Bacillus subtilis [13] = experiment: Bactericidal activity against Bacillus subtilis MTCC 121; assay type: functional
Micrococcus luteus [14] = experiment: Bactericidal activity against Micrococcus luteus MTCC 2470; assay type: functional
Pseudomonas aeruginosa [15] = experiment: Bactericidal activity against Pseudomonas aeruginosa MTCC 2453; assay type: functional
Candida albicans = experiment: Inhibition of biofilm formation in Candida albicans MTCC 3017 incubated for 24 hrs by crystal violet staining based microtiter plate method; assay type: functional, organism-based
Staphylococcus aureus [16] = experiment: Inhibition of biofilm formation in Staphylococcus aureus MLS16 MTCC 2940 incubated for 24 hrs by crystal violet staining based microtiter plate method; assay type: functional, organism-based
Bacillus subtilis [17] = experiment: Inhibition of biofilm formation in Bacillus subtilis MTCC 121 incubated for 24 hrs by crystal violet staining based microtiter plate method; assay type: functional, organism-based
Escherichia coli [18] = experiment: Inhibition of biofilm formation in Escherichia coli MTCC 739 incubated for 24 hrs by crystal violet staining based microtiter plate method; assay type: functional, organism-based
Pseudomonas aeruginosa [19] = experiment: Inhibition of biofilm formation in Pseudomonas aeruginosa MTCC 2453 incubated for 24 hrs by crystal violet staining based microtiter plate method; assay type: functional, organism-based
Micrococcus luteus [20] = experiment: Inhibition of biofilm formation in Micrococcus luteus MTCC 2470 incubated for 24 hrs by crystal violet staining based microtiter plate method; assay type: functional, organism-based
Staphylococcus aureus [21] = experiment: Inhibition of biofilm formation in Staphylococcus aureus […] incubated for 24 hrs by crystal violet staining based microtiter plate method; assay type: functional, organism-based
Raoultella planticola [22] = experiment: Inhibition of biofilm formation in Klebsiella planticola MTCC 530 incubated for 24 hrs by crystal violet staining based microtiter plate method; assay type: functional, organism-based
Raoultella planticola [23] = experiment: Bactericidal activity against Klebsiella planticola MTCC 530; assay type: functional

| Structure (SMILES) | Activity (THP-1 [1]) | MIC (Pseudomonas aeruginosa [2]) | MIC (Bacillus subtilis [3]) | MIC (Escherichia coli [4]) | MIC (Micrococcus luteus [5]) | selectivity ratio [6] | MIC (Raoultella planticola [7]) | CC50 [8] | Activity (THP-1 [9]) | MBC (Staphylococcus aureus [10]) | MIC (Staphylococcus aureus [11]) | MIC (Staphylococcus aureus [12]) | MBC (Bacillus subtilis [13]) | IC50 (Candida albicans) | IC50 (Staphylococcus aureus [16]) | IC50 (Escherichia coli [18]) | IC50 (Pseudomonas aeruginosa [19]) | IC50 (Micrococcus luteus [20]) | other results |
| --- | --- | --- | --- | --- | --- | --- | --- | --- | --- | --- | --- | --- | --- | --- | --- | --- | --- | --- | --- |
| COc1ccc(-n2cc(COc3ccc(/C=N/Nc4nc(-c5ccc(Cl)cc5)cs4)cc3)nn2)cc1 | Toxic | > 242 µM | > 242 µM | > 242 µM | > 242 µM | 2.58 | > 242 µM | 38.7 µM | Toxic | 30.2 µM (≈ 15.6 µg/mL) | > 242 µM | 15 µM (≈ 7.76 µg/mL) |  |  |  |  |  |  |  |
| COc1ccc(-n2cc(COc3ccc(/C=N/Nc4nc(-c5ccc(Br)cc5)cs4)cc3)nn2)cc1 | Toxic | 27.7 µM (≈ 15.6 µg/mL) | 13.8 µM (≈ 7.75 µg/mL) | > 223 µM | 13.8 µM (≈ 7.75 µg/mL) | 0.16 | > 223 µM | 35.6 µM | Toxic |  | > 223 µM | > 223 µM | 55.5 µM (≈ 31.2 µg/mL) |  |  |  |  |  | MBC (Micrococcus luteus [14]): 27.7 µM (≈ 15.6 µg/mL); MBC (Pseudomonas aeruginosa [15]): 111 µM (≈ 62.4 µg/mL) |
| COc1ccc(-n2cc(COc3ccc(/C=N/Nc4nc(-c5ccc(F)cc5)cs4)cc3)nn2)cc1 |  | > 223 µM | > 223 µM | > 223 µM | > 223 µM |  | > 223 µM |  |  |  | > 223 µM | > 223 µM |  |  |  |  |  |  |  |
| COc1ccc(-n2cc(COc3ccc(/C=N/Nc4nc(-c5ccccc5)cs4)cc3)nn2)cc1 |  | > 259 µM | > 259 µM | > 259 µM | > 259 µM |  | > 259 µM |  |  |  | > 259 µM | > 259 µM |  |  |  |  |  |  |  |
| COc1ccc(-n2cc(COc3ccc(/C=N/Nc4nc(-c5ccc(C)cc5)cs4)cc3)nn2)cc1 | Toxic | > 252 µM | > 252 µM | > 252 µM | > 252 µM | 2.57 | > 252 µM | 40.3 µM | Toxic | 31.4 µM (≈ 15.6 µg/mL) | > 252 µM | 15.7 µM (≈ 7.8 µg/mL) |  |  |  |  |  |  |  |
| CCOc1cc(Br)cc2cc(-c3csc(N/N=C/c4ccc(OCc5cn(-c6ccc(OC)cc6)nn5)cc4)n3)c(=O)oc12 |  | > 186 µM | > 186 µM | > 186 µM | > 186 µM |  | > 186 µM |  |  |  | > 186 µM | > 186 µM |  | Not Active | Not Active | Not Active | Not Active | Not Active | IC50 (Bacillus subtilis [17]): Not Active; IC50 (Staphylococcus aureus [21]): Not Active; IC50 (Raoultella planticola [22]): Not Active |
| COc1ccc(-c2csc(N/N=C/c3ccc(OCc4cn(-c5ccc(OC)cc5)nn4)cc3)n2)cc1 | Toxic | > 244 µM | 7.6 µM (≈ 3.9 µg/mL) | > 244 µM | > 244 µM | 5.13 | > 244 µM | 39 µM | Toxic | 30.4 µM (≈ 15.6 µg/mL) | > 244 µM | 7.6 µM (≈ 3.9 µg/mL) | 30.4 µM (≈ 15.6 µg/mL) |  |  |  |  |  |  |
| COc1ccc(-n2cc(COc3ccc(/C=N/Nc4nc(-c5ccc([N+](=O)[O-])cc5)cs4)cc3)nn2)cc1 | Toxic | 14.7 µM (≈ 7.76 µg/mL) | 14.7 µM (≈ 7.76 µg/mL) | > 237 µM | 14.7 µM (≈ 7.76 µg/mL) | 2.58 | > 237 µM | 37.9 µM | Toxic | 29.5 µM (≈ 15.6 µg/mL) | > 237 µM | 14.7 µM (≈ 7.76 µg/mL) | 29.5 µM (≈ 15.6 µg/mL) |  |  |  |  |  | MBC (Micrococcus luteus [14]): 29.5 µM (≈ 15.6 µg/mL); MBC (Pseudomonas aeruginosa [15]): 59.1 µM (≈ 31.2 µg/mL) |
| CCOc1cccc2cc(-c3csc(N/N=C/c4ccc(OCc5cn(-c6ccc(OC)cc6)nn5)cc4)n3)c(=O)oc12 |  | > 210 µM | > 210 µM | > 210 µM | > 210 µM |  | > 210 µM |  |  |  | > 210 µM | > 210 µM |  | Not Active | Not Active | Not Active | Not Active | Not Active | IC50 (Bacillus subtilis [17]): Not Active; IC50 (Staphylococcus aureus [21]): Not Active; IC50 (Raoultella planticola [22]): Not Active |
| COc1ccc(-n2cc(COc3ccc(/C=N/Nc4nc(-c5cc6cc(Cl)cc(Cl)c6oc5=O)cs4)cc3)nn2)cc1 |  | > 202 µM | > 202 µM | > 202 µM | > 202 µM |  | > 202 µM |  |  |  | > 202 µM | > 202 µM |  | Not Active | Not Active | Not Active | Not Active | Not Active | IC50 (Bacillus subtilis [17]): Not Active; IC50 (Staphylococcus aureus [21]): Not Active; IC50 (Raoultella planticola [22]): Not Active |
| COc1ccc(-n2cc(COc3ccc(/C=N/Nc4nc(-c5cc6cccc(Br)c6oc5=O)cs4)cc3)nn2)cc1 |  | > 199 µM | 6.1 µM (≈ 3.84 µg/mL) | > 199 µM | > 199 µM |  | 6.1 µM (≈ 3.84 µg/mL) |  |  | 12.3 µM (≈ 7.74 µg/mL) | > 199 µM | 6.1 µM (≈ 3.84 µg/mL) | 12.3 µM (≈ 7.74 µg/mL) | Not Active | Not Active | Not Active | Not Active | Not Active | MBC (Raoultella planticola [23]): 12.3 µM (≈ 7.74 µg/mL); IC50 (Bacillus subtilis [17]; Bacillus subtilis, MTCC 121, 24 h, read-out: IC50): 35.4 µM; IC50 (Staphylococcus aureus [21]; Staphylococcus aureus, MTCC 92, 24 h, read-out: IC50): 32.6 µM; IC50 (Raoultella planticola [22]; Klebsiella planticola, MTCC 530, 24 h, read-out: IC50): 42.3 µM |
| COc1ccc(-n2cc(COc3ccc(/C=N/Nc4nc(-c5ccc(-c6ccccc6)cc5)cs4)cc3)nn2)cc1 | Toxic | > 224 µM | 13.9 µM (≈ 7.77 µg/mL) | > 224 µM | > 224 µM | 2.58 | > 224 µM | 35.8 µM | Toxic | 27.9 µM (≈ 15.6 µg/mL) | > 224 µM | 13.9 µM (≈ 7.77 µg/mL) | 27.9 µM (≈ 15.6 µg/mL) |  |  |  |  |  |  |
